ChEMBL document CHEMBL3526023 (Drug Metab Dispos, 2011)

Assays:
[1] = molecular target: T1, UDP-glucuronosyltransferase 2B7 (Homo sapiens, UniProt P16662); conditions: microsomes
T1 sequence (P16662 whole entry): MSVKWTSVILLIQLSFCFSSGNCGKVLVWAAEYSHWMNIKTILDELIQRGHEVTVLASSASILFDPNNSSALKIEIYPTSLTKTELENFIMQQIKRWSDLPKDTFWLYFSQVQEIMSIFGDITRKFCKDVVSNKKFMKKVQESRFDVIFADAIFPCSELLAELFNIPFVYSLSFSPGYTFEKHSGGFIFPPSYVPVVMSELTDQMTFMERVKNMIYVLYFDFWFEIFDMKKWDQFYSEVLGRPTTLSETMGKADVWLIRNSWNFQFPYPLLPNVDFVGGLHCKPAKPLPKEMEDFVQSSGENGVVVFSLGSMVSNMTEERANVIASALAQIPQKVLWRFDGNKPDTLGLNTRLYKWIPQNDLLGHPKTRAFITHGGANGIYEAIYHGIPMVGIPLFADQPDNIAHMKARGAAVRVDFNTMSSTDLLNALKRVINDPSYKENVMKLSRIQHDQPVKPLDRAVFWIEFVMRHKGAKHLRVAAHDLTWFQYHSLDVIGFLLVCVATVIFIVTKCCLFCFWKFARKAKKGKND

[2] = molecular target: T1, UDP-glucuronosyltransferase 2B7; assay: Ratio of Vmax to Km in diabetic human liver microsomes assessed as UGT2B7-mediated zidovudine glucuronide formation per pmol protein by HPLC and LC-MS/MS method; type: ADME
[3] = molecular target: T1, UDP-glucuronosyltransferase 2B7; conditions: microsomes; remark: listed apart in the source
[4] = molecular target: T1, UDP-glucuronosyltransferase 2B7; conditions: microsomes; remark: listed apart in the source
[5] = molecular target: T1, UDP-glucuronosyltransferase 2B7; assay: Drug metabolism in diabetic human liver microsomes assessed as UGT2B7-mediated zidovudine glucuronide formation per pmol protein by HPLC and LC-MS/MS method; type: ADME
[6] = molecular target: T1, UDP-glucuronosyltransferase 2B7; assay: Drug metabolism in diabetic human kidney microsomes assessed as UGT2B7-mediated zidovudine glucuronide formation per pmol protein by HPLC and LC-MS/MS method; type: ADME
[7] = molecular target: T1, UDP-glucuronosyltransferase 2B7; assay: Drug metabolism in non-diabetic human liver microsomes assessed as UGT2B7-mediated zidovudine glucuronide formation per pmol protein by HPLC and LC-MS/MS method; type: ADME
[8] = molecular target: T1, UDP-glucuronosyltransferase 2B7; assay: Drug metabolism in non-diabetic human kidney microsomes assessed as UGT2B7-mediated zidovudine glucuronide formation per pmol protein by HPLC and LC-MS/MS method; type: ADME
[9] = molecular target: T1, UDP-glucuronosyltransferase 2B7; conditions: microsomes; remark: listed apart in the source
[10] = molecular target: T1, UDP-glucuronosyltransferase 2B7; assay: Ratio of Vmax to Km in diabetic human kidney microsomes assessed as UGT2B7-mediated mycophenolic acid acyl glucuronide formation per pmol protein by HPLC and LC-MS/MS method; type: ADME
[11] = molecular target: T1, UDP-glucuronosyltransferase 2B7; assay: Uncompetitive substrate inhibition of UGT2B7 in non-diabetic human kidney microsomes assessed as reduction in enzyme-mediated mycophenolic acid phenolic 7-O-glucuronide formation by HPLC and LC-MS/MS method; type: ADME
[12] = molecular target: T1, UDP-glucuronosyltransferase 2B7; assay: Drug metabolism in non-diabetic human liver microsomes assessed as UGT2B7-mediated mycophenolic acid acyl glucuronide formation per pmol protein by HPLC and LC-MS/MS method; type: ADME
[13] = molecular target: T1, UDP-glucuronosyltransferase 2B7; assay: Ratio of Vmax to Km in non-diabetic human liver microsomes assessed as UGT2B7-mediated mycophenolic acid acyl glucuronide formation per pmol protein by HPLC and LC-MS/MS method; type: ADME
[14] = molecular target: T1, UDP-glucuronosyltransferase 2B7; assay: Uncompetitive substrate inhibition of UGT2B7 in diabetic human liver microsomes assessed as reduction in enzyme-mediated mycophenolic acid acyl glucuronide formation by HPLC and LC-MS/MS method; type: ADME
[15] = molecular target: T1, UDP-glucuronosyltransferase 2B7; assay: Drug metabolism in diabetic human kidney microsomes assessed as UGT2B7-mediated mycophenolic acid acyl glucuronide formation per pmol protein by HPLC and LC-MS/MS method; type: ADME
[16] = molecular target: T1, UDP-glucuronosyltransferase 2B7; assay: Ratio of Vmax to Km in diabetic human liver microsomes assessed as UGT2B7-mediated mycophenolic acid phenolic 7-O-glucuronide formation per pmol protein by HPLC and LC-MS/MS method; type: ADME
[17] = molecular target: T1, UDP-glucuronosyltransferase 2B7; assay: Drug metabolism in non-diabetic human liver microsomes assessed as UGT2B7-mediated mycophenolic acid phenolic 7-O-glucuronide formation per pmol protein by HPLC and LC-MS/MS method; type: ADME
[18] = molecular target: T1, UDP-glucuronosyltransferase 2B7; assay: Uncompetitive substrate inhibition of UGT2B7 in diabetic human liver microsomes assessed as reduction in enzyme-mediated mycophenolic acid phenolic 7-O-glucuronide formation by HPLC and LC-MS/MS method; type: ADME
[19] = molecular target: T1, UDP-glucuronosyltransferase 2B7; assay: Drug metabolism in diabetic human kidney microsomes assessed as UGT2B7-mediated mycophenolic acid phenolic 7-O-glucuronide formation per pmol protein by HPLC and LC-MS/MS method; type: ADME
[20] = molecular target: T1, UDP-glucuronosyltransferase 2B7; assay: Drug metabolism in diabetic human liver microsomes assessed as UGT2B7-mediated mycophenolic acid phenolic 7-O-glucuronide formation per pmol protein by HPLC and LC-MS/MS method; type: ADME
[21] = molecular target: T1, UDP-glucuronosyltransferase 2B7; assay: Uncompetitive substrate inhibition of UGT2B7 in diabetic human kidney microsomes assessed as reduction in enzyme-mediated mycophenolic acid phenolic 7-O-glucuronide formation by HPLC and LC-MS/MS method; type: ADME
[22] = molecular target: T1, UDP-glucuronosyltransferase 2B7; assay: Uncompetitive substrate inhibition of UGT2B7 in non-diabetic human kidney microsomes assessed as reduction in enzyme-mediated mycophenolic acid acyl glucuronide formation by HPLC and LC-MS/MS method; type: ADME
[23] = molecular target: T1, UDP-glucuronosyltransferase 2B7; assay: Ratio of Vmax to Km in non-diabetic human kidney microsomes assessed as UGT2B7-mediated mycophenolic acid acyl glucuronide formation per pmol protein by HPLC and LC-MS/MS method; type: ADME
[24] = molecular target: T1, UDP-glucuronosyltransferase 2B7; assay: Uncompetitive substrate inhibition of UGT2B7 in non-diabetic human liver microsomes assessed as reduction in enzyme-mediated mycophenolic acid phenolic 7-O-glucuronide formation by HPLC and LC-MS/MS method; type: ADME
[25] = molecular target: T1, UDP-glucuronosyltransferase 2B7; assay: Ratio of Vmax to Km in non-diabetic human liver microsomes assessed as UGT2B7-mediated mycophenolic acid phenolic 7-O-glucuronide formation per pmol protein by HPLC and LC-MS/MS method; type: ADME
[26] = molecular target: T1, UDP-glucuronosyltransferase 2B7; assay: Drug metabolism in diabetic human liver microsomes assessed as UGT2B7-mediated mycophenolic acid acyl glucuronide formation per pmol protein by HPLC and LC-MS/MS method; type: ADME
[27] = molecular target: T1, UDP-glucuronosyltransferase 2B7; assay: Ratio of Vmax to Km in diabetic human kidney microsomes assessed as UGT2B7-mediated mycophenolic acid phenolic 7-O-glucuronide formation per pmol protein by HPLC and LC-MS/MS method; type: ADME
[28] = molecular target: T1, UDP-glucuronosyltransferase 2B7; assay: Uncompetitive substrate inhibition of UGT2B7 in non-diabetic human liver microsomes assessed as reduction in enzyme-mediated mycophenolic acid acyl glucuronide formation by HPLC and LC-MS/MS method; type: ADME
[29] = molecular target: T1, UDP-glucuronosyltransferase 2B7; assay: Drug metabolism in non-diabetic human kidney microsomes assessed as UGT2B7-mediated mycophenolic acid phenolic 7-O-glucuronide formation per pmol protein by HPLC and LC-MS/MS method; type: ADME
[30] = molecular target: T1, UDP-glucuronosyltransferase 2B7; assay: Ratio of Vmax to Km in diabetic human liver microsomes assessed as UGT2B7-mediated mycophenolic acid acyl glucuronide formation per pmol protein by HPLC and LC-MS/MS method; type: ADME
[31] = molecular target: T1, UDP-glucuronosyltransferase 2B7; assay: Uncompetitive substrate inhibition of UGT2B7 in diabetic human kidney microsomes assessed as reduction in enzyme-mediated mycophenolic acid acyl glucuronide formation by HPLC and LC-MS/MS method; type: ADME
[32] = molecular target: T1, UDP-glucuronosyltransferase 2B7; assay: Ratio of Vmax to Km in non-diabetic human kidney microsomes assessed as UGT2B7-mediated mycophenolic acid phenolic 7-O-glucuronide formation per pmol protein by HPLC and LC-MS/MS method; type: ADME
[33] = substrate: COc1c(C)c2c(c(O)c1C/C=C(\C)CCC(=O)O)C(=O)OC2; assay: Drug metabolism in non-diabetic human liver microsomes assessed as UGT2B7-mediated mycophenolic acid phenolic 7-O-glucuronide formation by HPLC and LC-MS/MS method; type: ADME
[34] = substrate: COc1c(C)c2c(c(O)c1C/C=C(\C)CCC(=O)O)C(=O)OC2; assay: Drug metabolism in non-diabetic human liver microsomes assessed as UGT2B7-mediated mycophenolic acid acyl glucuronide formation by HPLC and LC-MS/MS method; type: ADME
[35] = substrate: COc1c(C)c2c(c(O)c1C/C=C(\C)CCC(=O)O)C(=O)OC2; assay: Drug metabolism in diabetic human kidney microsomes assessed as UGT2B7-mediated mycophenolic acid phenolic 7-O-glucuronide formation by HPLC and LC-MS/MS method; type: ADME
[36] = substrate: COc1c(C)c2c(c(O)c1C/C=C(\C)CCC(=O)O)C(=O)OC2; assay: Drug metabolism in diabetic human liver microsomes assessed as UGT2B7-mediated mycophenolic acid acyl glucuronide formation by HPLC and LC-MS/MS method; type: ADME
[37] = substrate: COc1c(C)c2c(c(O)c1C/C=C(\C)CCC(=O)O)C(=O)OC2; assay: Drug metabolism in non-diabetic human kidney microsomes assessed as UGT2B7-mediated mycophenolic acid acyl glucuronide formation by HPLC and LC-MS/MS method; type: ADME
[38] = substrate: COc1c(C)c2c(c(O)c1C/C=C(\C)CCC(=O)O)C(=O)OC2; assay: Drug metabolism in diabetic human kidney microsomes assessed as UGT2B7-mediated mycophenolic acid acyl glucuronide formation by HPLC and LC-MS/MS method; type: ADME
[39] = substrate: COc1c(C)c2c(c(O)c1C/C=C(\C)CCC(=O)O)C(=O)OC2; assay: Drug metabolism in non-diabetic human kidney microsomes assessed as UGT2B7-mediated mycophenolic acid phenolic 7-O-glucuronide formation by HPLC and LC-MS/MS method; type: ADME
[40] = substrate: COc1c(C)c2c(c(O)c1C/C=C(\C)CCC(=O)O)C(=O)OC2; assay: Drug metabolism in diabetic human liver microsomes assessed as UGT2B7-mediated mycophenolic acid phenolic 7-O-glucuronide formation by HPLC and LC-MS/MS method; type: ADME

Molecule: Cc1cn([C@H]2C[C@H](N=[N+]=[N-])[C@@H](CO)O2)c(=O)[nH]c1=O [ZIDOVUDINE]
- Km [1]: 307 µM
- Vmax/Km [2]: 0.87 nL/min
- Km [3]: 330 µM
- Km [4]: 519 µM
- Vmax [5]: 274 pmol/min
- Vmax [6]: 6.52 pmol/min
- Vmax [7]: 1214 pmol/min
- Vmax [8]: 20.5 pmol/min
- Km [9]: 519 µM

Molecule: COc1c(C)c2c(c(O)c1C/C=C(\C)CCC(=O)O)C(=O)OC2 [MYCOPHENOLIC ACID]
- Vmax/Km [10]: 0.12 nL/min
- Ki [11]: 1500 nM
- Vmax [12]: 2.43 pmol/min
- Vmax/Km [13]: 4.08 nL/min
- Ki [14]: 2000 nM
- Vmax [15]: 0.43 pmol/min
- Vmax/Km [16]: 31.3 nL/min
- Vmax [17]: 10.6 pmol/min
- Ki [18]: 1500 nM
- Vmax [19]: 38.8 pmol/min
- Vmax [20]: 15.7 pmol/min
- Ki [21]: 1500 nM
- Ki [22]: 2000 nM
- Vmax/Km [23]: 0.41 nL/min
- Ki [24]: 1500 nM
- Vmax/Km [25]: 22.9 nL/min
- Vmax [26]: 0.76 pmol/min
- Vmax/Km [27]: 34.1 nL/min
- Ki [28]: 2000 nM
- Vmax [29]: 26.4 pmol/min
- Vmax/Km [30]: 1.51 nL/min
- Ki [31]: 2000 nM
- Vmax/Km [32]: 27.6 nL/min

B1: UDP-glucuronosyltransferase 2B7 (Homo sapiens) (protein)
chain: MSVKWTSVILLIQLSFCFSSGNCGKVLVWAAEYSHWMNIKTILDELIQRGHEVTVLASSASILFDPNNSSALKIEIYPTSLTKTELENFIMQQIKRWSDLPKDTFWLYFSQVQEIMSIFGDITRKFCKDVVSNKKFMKKVQESRFDVIFADAIFPCSELLAELFNIPFVYSLSFSPGYTFEKHSGGFIFPPSYVPVVMSELTDQMTFMERVKNMIYVLYFDFWFEIFDMKKWDQFYSEVLGRPTTLSETMGKADVWLIRNSWNFQFPYPLLPNVDFVGGLHCKPAKPLPKEMEDFVQSSGENGVVVFSLGSMVSNMTEERANVIASALAQIPQKVLWRFDGNKPDTLGLNTRLYKWIPQNDLLGHPKTRAFITHGGANGIYEAIYHGIPMVGIPLFADQPDNIAHMKARGAAVRVDFNTMSSTDLLNALKRVINDPSYKENVMKLSRIQHDQPVKPLDRAVFWIEFVMRHKGAKHLRVAAHDLTWFQYHSLDVIGFLLVCVATVIFIVTKCCLFCFWKFARKAKKGKND
- Km [33]: 454 µM
- Km [34]: 601 µM
- Km [35]: 1160 µM
- Km [36]: 502 µM
- Km [37]: 3010 µM
- Km [38]: 3430 µM
- Km [39]: 1010 µM
- Km [40]: 482 µM
